# Measurements as given in paper PMC8206213, “An L-2-hydroxyglutarate biosensor based on specific transcriptional regulator LhgR” (Nature Communications, 2021).
# “And” between values parts separate entries of the source, which are not always exact repeats. Identical values can stand only once.
# Assay: Dose-response of purified LHGFR and its variants for L-2-HG in 50 mM Tris-HCl buffer (pH 7.4), Venus/mTFP emission ratio
# Format: binding
# Description: Purified L-2-HG biosensors and different compounds were diluted by 50 mM Tris-HCl buffer (pH 7.4), mixed together in a black 96-well plate at a volume ratio of 3:1, and the fluorescence intensities were measured using an EnSight microplate reader (PerkinElmer, USA) with excitation at 430 nm, emission at 485 nm (mTFP) and 528 nm (Venus). The dose-response curves were fitted by OriginPro 2016 software (OriginLab) according to the following formula:1 R=Rmax+Rmin−Rmax/1+([L-2-HG]/Kd)^p where R, Rmin, and Rmax refer to the emission ratio of Venus to mTFP, ratio in the absence of L-2-HG, and ratio at saturation with L-2-HG, respectively. The [L-2-HG], Kd, and p refer to the L-2-HG concentration, apparent dissociation constant, and Hill slope, respectively. Emission spectra were recorded at 430 nm excitation, in steps of 2 nm. Excitation spectra were recorded using emission at 550 nm, excitation from 380 to 535 nm in steps of 2 nm.
compound,measurement,setting,value
"O=C(O)CC[C@H](O)C(=O)O [L-2-HG, L-2-Hydroxyglutarate]",Emission ratio of 528/485,"For L-2-HG, 2-HG concentration 0.01, Suppl. Fig. 9c",1.3857 and 1.387 and 1.404
same,Emission ratio of 528/485,"For L-2-HG, 2-HG concentration 0.01, Suppl. Fig. 9d",1.655 and 1.676 and 1.693
same,Emission ratio of 528/485,"For L-2-HG, 2-HG concentration 0.1, Suppl. Fig. 9c",1.381 and 1.392 and 1.391
same,Emission ratio of 528/485,"For L-2-HG, 2-HG concentration 0.1, Suppl. Fig. 9d",1.641 and 1.674 and 1.689
same,Emission ratio of 528/485,"For L-2-HG, 2-HG concentration 0.2, Suppl. Fig. 9c",1.397 and 1.394 and 1.401
same,Emission ratio of 528/485,"For L-2-HG, 2-HG concentration 0.2, Suppl. Fig. 9d",1.675 and 1.688 and 1.698
same,Emission ratio of 528/485,"For L-2-HG, 2-HG concentration 1, Suppl. Fig. 9c",1.392 and 1.412 and 1.423
same,Emission ratio of 528/485,"For L-2-HG, 2-HG concentration 1, Suppl. Fig. 9d",1.753 and 1.778 and 1.797
same,Emission ratio of 528/485,"For L-2-HG, 2-HG concentration 2, Suppl. Fig. 9c",1.425 and 1.451 and 1.463
same,Emission ratio of 528/485,"For L-2-HG, 2-HG concentration 2, Suppl. Fig. 9d",1.892 and 1.897 and 1.889
same,Emission ratio of 528/485,"For L-2-HG, 2-HG concentration 10, Suppl. Fig. 9c",1.602 and 1.628 and 1.623
same,Emission ratio of 528/485,"For L-2-HG, 2-HG concentration 10, Suppl. Fig. 9d",2.254 and 2.242 and 2.288
same,Emission ratio of 528/485,"For L-2-HG, 2-HG concentration 20, Suppl. Fig. 9c",1.712 and 1.7343 and 1.752
same,Emission ratio of 528/485,"For L-2-HG, 2-HG concentration 20, Suppl. Fig. 9d",2.359 and 2.347 and 2.363
same,Emission ratio of 528/485,"For L-2-HG, 2-HG concentration 100, Suppl. Fig. 9c",1.988 and 1.973 and 1.992
same,Emission ratio of 528/485,"For L-2-HG, 2-HG concentration 100, Suppl. Fig. 9d",2.568 and 2.652 and 2.688
same,Emission ratio of 528/485,"For L-2-HG, 2-HG concentration 200, Suppl. Fig. 9c",2.0666 and 2.05 and 2.077
same,Emission ratio of 528/485,"For L-2-HG, 2-HG concentration 200, Suppl. Fig. 9d",2.563 and 2.676 and 2.688
same,Emission ratio of 528/485,"For L-2-HG, 2-HG concentration 1000, Suppl. Fig. 9c",2.162 and 2.183 and 2.153
same,Emission ratio of 528/485,"For L-2-HG, 2-HG concentration 1000, Suppl. Fig. 9d",2.635 and 2.6341 and 2.632
same,Emission ratio of 528/485,"For L-2-HG, 2-HG concentration 2000, Suppl. Fig. 9c",2.173 and 2.178 and 2.17
same,Emission ratio of 528/485,"For L-2-HG, 2-HG concentration 2000, Suppl. Fig. 9d",2.667 and 2.655 and 2.697
same,Emission ratio of 528/485,"Supplementary Fig. 6a, L-2-HG concentration 0.01",1.3857 and 1.387 and 1.404
same,Emission ratio of 528/485,"Supplementary Fig. 6a, L-2-HG concentration 0.1",1.381 and 1.392 and 1.391
same,Emission ratio of 528/485,"Supplementary Fig. 6a, L-2-HG concentration 0.2",1.397 and 1.394 and 1.401
same,Emission ratio of 528/485,"Supplementary Fig. 6a, L-2-HG concentration 1",1.392 and 1.412 and 1.423
same,Emission ratio of 528/485,"Supplementary Fig. 6a, L-2-HG concentration 2",1.425 and 1.451 and 1.463
same,Emission ratio of 528/485,"Supplementary Fig. 6a, L-2-HG concentration 10",1.602 and 1.628 and 1.623
same,Emission ratio of 528/485,"Supplementary Fig. 6a, L-2-HG concentration 20",1.712 and 1.7343 and 1.752
same,Emission ratio of 528/485,"Supplementary Fig. 6a, L-2-HG concentration 100",1.988 and 1.973 and 1.992
same,Emission ratio of 528/485,"Supplementary Fig. 6a, L-2-HG concentration 200",2.0666 and 2.05 and 2.077
same,Emission ratio of 528/485,"Supplementary Fig. 6a, L-2-HG concentration 1000",2.162 and 2.183 and 2.153
same,Emission ratio of 528/485,"Supplementary Fig. 6a, L-2-HG concentration 2000",2.173 and 2.178 and 2.17
same,Emission ratio of 528/485,"Supplementary Fig. 6b, L-2-HG concentration 0.01",1.79 and 1.921 and 1.894
same,Emission ratio of 528/485,"Supplementary Fig. 6b, L-2-HG concentration 0.1",1.777 and 1.91 and 1.94
same,Emission ratio of 528/485,"Supplementary Fig. 6b, L-2-HG concentration 1",2.057 and 2.207 and 2.255
same,Emission ratio of 528/485,"Supplementary Fig. 6b, L-2-HG concentration 2",2.268 and 2.379 and 2.449
same,Emission ratio of 528/485,"Supplementary Fig. 6b, L-2-HG concentration 10",2.5843 and 2.787 and 2.825
same,Emission ratio of 528/485,"Supplementary Fig. 6b, L-2-HG concentration 20",2.72 and 2.88 and 2.892
same,Emission ratio of 528/485,"Supplementary Fig. 6b, L-2-HG concentration 100",2.76 and 2.892 and 2.986
same,Emission ratio of 528/485,"Supplementary Fig. 6b, L-2-HG concentration 1000",2.847 and 2.935 and 2.998
same,Emission ratio of 528/485,"Supplementary Fig. 6b, L-2-HG concentration 2000",2.912 and 2.995 and 3.032
same,Emission ratio of 528/485,"Supplementary Fig. 6c, L-2-HG concentration 0.01",1.881 and 1.865 and 1.887
same,Emission ratio of 528/485,"Supplementary Fig. 6c, L-2-HG concentration 0.1",1.869 and 1.918 and 1.908
same,Emission ratio of 528/485,"Supplementary Fig. 6c, L-2-HG concentration 1",2.144 and 2.182 and 2.149
same,Emission ratio of 528/485,"Supplementary Fig. 6c, L-2-HG concentration 2",2.3419 and 2.384 and 2.402
same,Emission ratio of 528/485,"Supplementary Fig. 6c, L-2-HG concentration 10",2.743 and 2.7667 and 2.84
same,Emission ratio of 528/485,"Supplementary Fig. 6c, L-2-HG concentration 20",2.846 and 2.91 and 2.871
same,Emission ratio of 528/485,"Supplementary Fig. 6c, L-2-HG concentration 100",2.914 and 2.957 and 2.953
same,Emission ratio of 528/485,"Supplementary Fig. 6c, L-2-HG concentration 1000",2.894 and 2.9819 and 2.963
same,Emission ratio of 528/485,"Supplementary Fig. 6c, L-2-HG concentration 2000",2.899 and 2.986 and 2.9894
same,Emission ratio of 528/485,"Supplementary Fig. 6e, L-2-HG concentration 0.01",1.655 and 1.676 and 1.693
same,Emission ratio of 528/485,"Supplementary Fig. 6e, L-2-HG concentration 0.1",1.641 and 1.674 and 1.689
same,Emission ratio of 528/485,"Supplementary Fig. 6e, L-2-HG concentration 0.2",1.675 and 1.688 and 1.698
same,Emission ratio of 528/485,"Supplementary Fig. 6e, L-2-HG concentration 1",1.753 and 1.778 and 1.797
same,Emission ratio of 528/485,"Supplementary Fig. 6e, L-2-HG concentration 2",1.892 and 1.897 and 1.889
same,Emission ratio of 528/485,"Supplementary Fig. 6e, L-2-HG concentration 10",2.254 and 2.242 and 2.288
same,Emission ratio of 528/485,"Supplementary Fig. 6e, L-2-HG concentration 20",2.359 and 2.347 and 2.363
same,Emission ratio of 528/485,"Supplementary Fig. 6e, L-2-HG concentration 100",2.568 and 2.652 and 2.688
same,Emission ratio of 528/485,"Supplementary Fig. 6e, L-2-HG concentration 200",2.563 and 2.676 and 2.688
same,Emission ratio of 528/485,"Supplementary Fig. 6e, L-2-HG concentration 1000",2.635 and 2.6341 and 2.632
same,Emission ratio of 528/485,"Supplementary Fig. 6e, L-2-HG concentration 2000",2.667 and 2.655 and 2.697
same,Emission ratio of 528/485,"Supplementary Fig. 6d, L-2-HG concentration 0.01",1.72 and 1.724 and 1.742
same,Emission ratio of 528/485,"Supplementary Fig. 6d, L-2-HG concentration 0.1",1.742 and 1.747 and 1.746
same,Emission ratio of 528/485,"Supplementary Fig. 6d, L-2-HG concentration 1",1.865 and 1.88 and 1.882
same,Emission ratio of 528/485,"Supplementary Fig. 6d, L-2-HG concentration 2",2.014 and 2.037 and 2.039
same,Emission ratio of 528/485,"Supplementary Fig. 6d, L-2-HG concentration 10",2.446 and 2.449 and 2.469
same,Emission ratio of 528/485,"Supplementary Fig. 6d, L-2-HG concentration 20",2.546 and 2.554 and 2.592
same,Emission ratio of 528/485,"Supplementary Fig. 6d, L-2-HG concentration 100",2.59 and 2.651 and 2.67
same,Emission ratio of 528/485,"Supplementary Fig. 6d, L-2-HG concentration 1000",2.653 and 2.699 and 2.7087
same,Emission ratio of 528/485,"Supplementary Fig. 6d, L-2-HG concentration 2000",2.665 and 2.7183 and 2.7325
